Patent publication US9127040B2, “Regulation of sodium channels by PLUNC proteins” (The University of North Carolina at Chapel Hill, priority 2011, dated 2015)
Entries after “also recorded” stand apart in the source; their conditions may differ. Ends that are not written are not given here.

B1: SPLUNC1: human SPLUNC1 (SEQ ID NO:1), 256 amino acid secreted PLUNC family protein; rSPLUNC1 is the purified V5/6His-tagged recombinant form (protein, listed as Homo sapiens)
chain: MFQTGGLIVFYGLLAQTMAQFGGLPVPLDQTLPLNVNPALPLSPTGLAGSLTNALSNGLLSGGLLGILENLPLLDILKPGGGTSGGLLGGLLGKVTSVIPGLNNIIDIKVTDPQLLELGLVQSPDGHRLYVTIPLGIKLQVNTPLVGASLLRLAVKLDITAEILAVRDKQERIHLVLGDCTHSPGSLQISLLDGLGPLPIQGLLDSLTGILNKVLPELVQGNVCPLVNEVLRGLDITLVHDIVNMLIHGLQFVIKV
modifications: V5/6His tag in recombinant form
notes: rSPLUNC1 is the purified V5/6His-tagged recombinant form

Tests used:
αβγENaC [1] = molecular target: T1, αβγENaC (Rattus norvegicus, UniProt P37089+P37090+P37091); assay: Amiloride-sensitive whole cell current, two electrode voltage clamp, Xenopus laevis oocytes expressing αβγENaC; type: cell-based; conditions: 100 μM in bath for 2 h; pH 6 vs 7.4
T1 construct: expressed in transfected cells; host or cells: Xenopus laevis oocytes (cRNA injection)
T1 sequence (P37089 1-698): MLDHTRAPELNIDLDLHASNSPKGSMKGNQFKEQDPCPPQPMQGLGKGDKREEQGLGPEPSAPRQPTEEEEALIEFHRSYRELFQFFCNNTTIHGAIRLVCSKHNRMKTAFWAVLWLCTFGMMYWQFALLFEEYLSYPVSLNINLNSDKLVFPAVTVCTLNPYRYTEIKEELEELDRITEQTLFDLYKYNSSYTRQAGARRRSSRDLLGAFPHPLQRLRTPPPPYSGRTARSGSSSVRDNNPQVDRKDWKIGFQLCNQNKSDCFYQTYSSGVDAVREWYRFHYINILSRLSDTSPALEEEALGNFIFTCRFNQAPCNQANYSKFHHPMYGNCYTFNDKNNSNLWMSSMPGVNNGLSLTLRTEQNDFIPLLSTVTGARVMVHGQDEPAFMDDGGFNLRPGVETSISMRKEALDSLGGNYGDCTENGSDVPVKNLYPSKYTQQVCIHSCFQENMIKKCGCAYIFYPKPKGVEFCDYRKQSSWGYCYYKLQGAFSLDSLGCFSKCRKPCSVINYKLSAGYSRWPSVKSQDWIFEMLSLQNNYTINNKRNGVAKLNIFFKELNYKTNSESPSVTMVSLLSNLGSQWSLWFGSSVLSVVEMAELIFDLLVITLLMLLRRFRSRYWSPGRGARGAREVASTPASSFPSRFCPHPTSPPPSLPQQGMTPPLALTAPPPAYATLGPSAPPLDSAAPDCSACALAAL
T1 sequence (P37090 1-638): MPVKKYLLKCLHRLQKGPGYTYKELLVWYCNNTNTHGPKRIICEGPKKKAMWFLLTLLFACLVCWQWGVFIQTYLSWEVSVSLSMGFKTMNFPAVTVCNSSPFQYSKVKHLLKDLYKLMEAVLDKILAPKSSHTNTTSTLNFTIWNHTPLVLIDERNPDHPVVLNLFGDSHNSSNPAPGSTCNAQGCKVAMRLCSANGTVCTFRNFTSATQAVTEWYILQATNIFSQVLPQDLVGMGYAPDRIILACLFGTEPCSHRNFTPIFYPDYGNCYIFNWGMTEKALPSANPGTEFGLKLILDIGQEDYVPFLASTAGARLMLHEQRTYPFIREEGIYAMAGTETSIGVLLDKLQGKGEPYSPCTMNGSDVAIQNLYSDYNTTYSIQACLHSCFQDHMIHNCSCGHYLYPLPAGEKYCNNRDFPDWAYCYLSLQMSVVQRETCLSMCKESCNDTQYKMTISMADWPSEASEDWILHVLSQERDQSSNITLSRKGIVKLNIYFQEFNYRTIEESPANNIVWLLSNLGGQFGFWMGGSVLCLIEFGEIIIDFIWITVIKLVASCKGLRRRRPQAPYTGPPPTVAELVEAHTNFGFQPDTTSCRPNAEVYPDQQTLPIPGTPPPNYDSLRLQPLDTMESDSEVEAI
T1 sequence (P37091 1-650): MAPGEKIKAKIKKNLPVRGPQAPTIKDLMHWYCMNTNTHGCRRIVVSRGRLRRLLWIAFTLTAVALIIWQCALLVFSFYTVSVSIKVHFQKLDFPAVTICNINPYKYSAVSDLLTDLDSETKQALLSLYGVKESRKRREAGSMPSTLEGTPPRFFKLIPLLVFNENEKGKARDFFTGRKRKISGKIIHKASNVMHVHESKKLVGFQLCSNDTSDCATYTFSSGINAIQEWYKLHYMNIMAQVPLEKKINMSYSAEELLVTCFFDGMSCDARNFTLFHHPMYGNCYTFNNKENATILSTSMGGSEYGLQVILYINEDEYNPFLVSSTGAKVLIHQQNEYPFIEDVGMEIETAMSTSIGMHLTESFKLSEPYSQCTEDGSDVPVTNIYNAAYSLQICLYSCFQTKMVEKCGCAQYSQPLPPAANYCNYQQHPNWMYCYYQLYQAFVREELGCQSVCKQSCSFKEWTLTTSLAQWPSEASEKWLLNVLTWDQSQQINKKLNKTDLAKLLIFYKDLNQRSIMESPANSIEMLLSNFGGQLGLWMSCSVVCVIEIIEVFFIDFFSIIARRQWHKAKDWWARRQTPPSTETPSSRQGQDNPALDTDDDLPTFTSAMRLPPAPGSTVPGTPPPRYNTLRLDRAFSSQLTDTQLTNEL

αβγENaC [2] = molecular target: T1, αβγENaC; assay: as above; type: cell-based
Procedure: Xenopus laevis oocytes were harvested and injected as described (Donaldson, et al., J. Biol. Chem. 277:8338 (2002)). Defolliculated healthy stage V-VI oocytes were injected with 0.3 ng of CRNA of each ENaC subunit. Injected oocytes were kept in modified Barth's saline (in mM: 88 NaCl, 1 KCl, 2.4 NaHCO3, 0.3 Ca(NO3)2, 0.41 CaCl2, 0.82 MgSO4, and 15 HEPES, adjusted to pH 7.35 with Tris). Oocytes were studied 24 hr after injection using the two electrode voltage clamp technique as previously described (Donaldson, et al., J. Biol. Chem. 277:8338 (2002)). Oocytes were clamped at a holding potential of −60 mV. The change in amiloride-sensitive whole cell current as an indicator of ENaC activity was determined by subtracting the corresponding current value measured in the presence of 10 μM amiloride from that measured before the application of amiloride. Where appropriate, oocytes were incubated with G22-A39 or ABC for 1 h prior to recording. In some experiments β-ENaC^S518C was used which forms ENaCs that are locked into an open probability near 1.0 by exposure to the sulthydral reactive reagent [2-(Trimethyl-ammonium)ethyl]methanethiosulphonate bromide (MTSET). MTSET was added at a concentration of 1 mM to the oocyte bath as previously described (Snyder, J. Clin. Invest. 105: 45 (2000)).

Procedure for CF HBECs: To label airway surface liquid, Ringer containing Texas Red-dextran (2 mg/ml; Invitrogen) was added to human bronchial epithelial culture mucosal surfaces. Perfluorocarbon was added mucosally to prevent evaporation of the airway surface liquid and the culture placed in a chamber containing 100 μl Ringer on the stage of a Leica SP5 confocal microscope with a 63× glycerol immersion objective. 5 points per culture were scanned and an average airway surface liquid height determined. For confocal microscopy human bronchial epithelial cultures were bathed serosally in a modified Ringer solution containing (mM): 116 NaCl, 10 NaHCO3, 5.1 KCl, 1.2 CaCl2, 1.2 MgCl2, 20 TES, 10 glucose, pH 7.4). At all other times, human bronchial epithelial cultures were maintained in a modified BEGM growth medium which contained 24 mM NaHCO3 gassed with 5% CO2.
To label the ASL, PBS containing 10 kDa Rhodamine dextran (0.2-2 mg/mL; Invitrogen, Carlsbad, Calif., USA) was added to HBEC mucosal surfaces as previously described (Tarran et al., Mol. Cell 8:149 (2001)). When added, peptides with or without 100 nM neutrophil elastase, 1 U/mL aprotinin, activated neutrophil supernatant (ANS) (Haynes et al., Am. J. Physiol. Heart Circ. Physiol. 294:H379 (2008)) or 10 μM sivelestat (Sigma-Aldrich, St Louis, Mo., USA) were added to the mucosal surface along with the Rhodamine dextran. Bumetanide (100 μM) was added to the serosal solution.

| Molecule | ASL absorption (CF HBECs; 10 μM apical, over 24 h) | CF ASL absorption, paired cultures (CF HBECs; 100 μM SPLUNC1 or S18) | IC50 (CF HBECs; 8 h) [nM] | CF ASL hyperabsorption in the presence of activated neutrophil supernatant (CF HBECs; 8 h ASL height, ANS) | CF ASL hyperabsorption in the presence of neutrophil elastase (CF HBECs; 8 h ASL height, neutrophil elastase) | heat stability: inhibition of CF ASL absorption after heating (CF HBECs; peptide heated to 67° C. for 30 min, also with neutrophil elastase) | inhibition of amiloride-sensitive ENaC current at pH 6 (αβγENaC [1]) | inhibition of ENaC current by peptide in bath (αβγENaC [2]; 10 μM in oocyte bath for 1 h) | effect of N-terminal biotinylation on ability to inhibit ENaC (αβγENaC [2]; n=6) | CF ASL volume homeostasis in SPLUNC1 knockdown CF HBECs (CF HBECs; recombinant SPLUNC1 together with POPSO-Ringer) | activation of ENaC currents by prostasin (CAP1) and CAP2 (αβγENaC [2]; SPLUNC1 co-expressed) | trypsin stimulation of ENaC activity (αβγENaC [2]; SPLUNC1 co-expressed) | inhibition of ENaC by C-terminal truncation mutants (αβγENaC [2]; co-expressed in oocytes, all p<0.0001 where significant) |
| --- | --- | --- | --- | --- | --- | --- | --- | --- | --- | --- | --- | --- | --- |
| GGLPVPLDQTLPLNVNPA [S18] | significantly blocked ASL absorption | inhibited CF ASL absorption | 600 | prevented CF ASL hyperabsorption | prevented CF ASL hyperabsorption | no effect on the ability of S18 to inhibit CF ASL absorption | still inhibits ENaC | inhibited ENaC to the same degree as the full length protein; also recorded: inhibits both basal and trypsin-stimulated ENaC current | no effect | – | – | – | – |
| B1 | – | – | – | – | – | – | abolished at pH 6 | – | – | required to restore CF ASL volume homeostasis | significantly reduced | attenuated | Significant inhibition |
